Experimental data published in patent publication US8680071B2 (Idenix Pharmaceuticals, Inc., priority 2010, dated 2014).
Like-named read-outs stand apart in the source and are kept apart here.

Key:
[1] = system: HCV Con1 subgenomic replicon; assay: HCV replicon assay (NS4A ELISA); type: cell-based; settings: Hepatitis C virus
Experimental: (§1) Huh-7 cells containing HCV Con1 subgenomic replicon (GS4.1 cells), (C. Seeger; Fox Chase University, Philadelphia, Pa., USA), are grown in Dulbecco's Modified Eagle Medium (DMEM) supplemented with 10% fetal bovine serum (FBS), 2 mM L-glutamine, 110 mg/L sodium pyruvate, 1× non-essential amino acids, 100 U/mL penicillin-streptomycin and 0.5 mg/mL G418 (Invitrogen). For dose-response testing, the cells are seeded in 96-well plates at 7.5×10^3 cells/well in a volume of 50 μL and incubated at 37° C./5% CO2. Three hours after plating, 50 μL of ten 2-fold serial dilutions of compounds (highest concentration, 75 μM) are added and cell cultures were incubated at 37° C./5% CO2 in the presence of 0.5% DMSO. Alternatively, compounds are tested at a single concentration of 15 μM. In all cases, Huh-7 cells lacking the HCV replicon served as negative control. The cells are incubated in the presence of compounds for 72 hours after which they were monitored for expression of the NS4A protein by enzyme-linked immunosorbent assay (ELISA). For this, the plates were then fixed for 1 min with 1:1 acetone:methanol, washed twice with phosphate-buffered saline (PBS), 0.1% Tween 20, blocked for 1 hour at room temperature with TNE buffer containing 10% FBS and then incubated for 2 h at 37° C. with the anti-NS4A mouse monoclonal antibody A-236 (ViroGen) diluted in the same buffer. After washing three times with PBS, 0.1% Tween 20, the cells are incubated 1 hour at 37° C. with anti-mouse immunoglobulin G-peroxidase conjugate in TNE, 10% FBS. After washing as described above, the reaction is developed with O-phenylenediamine (Zymed). The reaction is stopped after 30 minutes with […] and the absorbance is read at 492 nm using a Sunrise Tecan spectrophotometer. EC50 values are determined from the % inhibition versus concentration data using a sigmoidal non-linear regression analysis based on four parameters with Tecan Magellan software. When screening at a single concentration, the results are expressed as % inhibition at 15 μM. For cytotoxicity evaluation, GS4.1 cells are treated with compounds as described above and cellular viability was monitored using a Cell Titer 96 AQueous One Solution Cell Proliferation Assay (Promega). CC50 values are determined from the % cytotoxicity versus concentration data with Tecan Magellan software as described above.
Compounds presented in the table below were assayed according to the replicon assay described above.

[2] = Cytotoxicity evaluation (Cell Titer 96 AQueous One Solution Cell Proliferation Assay); type: cell-based; settings: human, GS4.1 cells, cellular viability, read-out: HCV Replicon CC50
Experimental: as §1

[3] = ELISA 2 assay, Huh-7 cells containing HCV Con1 subgenomic replicon (GS4.1 cells), 72 hours, NS4A expression, read-out: HCV Replicon EC50
[4] = Huh-7, 72 h, read-out: HCV Replicon EC50 (μM)

Row | Compound | EC50 [1, 3] | CC50 at 72 h [2] | EC50 [1, 4]
1 | COC(=O)C(CC(C)C)NP(=O)(NC(CC(C)C)C(=O)OC)OC[C@H]1O[C@@H](n2cnc3c(OC)nc(N)nc32)[C@@]2(C)OC(=O)OC12 (stereo partly drawn) [Compound 4] | < 1 µM | > 75 µM | –
2 | COC(=O)C(CC(C)C)NP(=O)(NC(CC(C)C)C(=O)OC)OC[C@H]1O[C@@H](n2cnc3c(NC4CC4)nc(N)nc32)C(C)(O)C1O (stereo partly drawn) [Compound 8] | < 1 µM | > 75 µM | –
3 | C#C[C@@]1(F)[C@H](O)[C@@H](CO)O[C@H]1n1cnc2c(=O)[nH]c(N)nc21 [reference compound] | > 10 µM | > 75 µM | –
4 | CCOC(=O)C(CC(C)C)NP(=O)(NC(CC(C)C)C(=O)OCC)OC[C@H]1O[C@@H](n2cnc3c(NC4CC4)nc(N)nc32)C(C)(O)C1O (stereo partly drawn) [Compound 6] | < 1 µM | > 75 µM | –
5 | C[C@@]1(O)[C@H](O)[C@@H](CO)O[C@H]1n1cnc2c(=O)[nH]c(N)nc21 [2′-C-methylguanosine, reference compound] | 1 to 10 µM | > 75 µM | –
6 | COC(=O)C(CC(C)C)NP(=O)(NC(CC(C)C)C(=O)OC)OC[C@H]1O[C@@H](n2cnc3c(OC)nc(N)nc32)C(C)(O)C1O (stereo partly drawn) [Compound 3] | < 1 µM | > 75 µM | –
7 | CCOC(=O)CNP(=O)(NCC(=O)OCC)OC[C@H]1O[C@@H](n2cnc3c(=O)[nH]c(N)nc32)C(C)(O)C1O (stereo partly drawn) [Compound 54] | – | > 75 µM | 1 to 10 µM
8 | C#CC1(F)C(O)[C@@H](COP(=O)(NCC(=O)OCC)NCC(=O)OCC)O[C@H]1n1cnc2c(=O)[nH]c(N)nc21 (stereo partly drawn) [Compound 48] | – | > 75 µM | > 10 µM
9 | COC(=O)C(CC(C)C)NP(=O)(NC(CC(C)C)C(=O)OC)OC[C@H]1O[C@@H](n2cnc3c(=O)[nH]c(N)nc32)C(C)(O)C1O (stereo partly drawn) [Compound 9] | – | > 75 µM | 1 to 10 µM
